This note sets out measurements from patent publication US20240246979A1, “cGAS INHIBITORS” (Eli Lilly and Company, priority 2022, published 2024).

Test [1] concerns the target T1, cGAS (Homo sapiens, UniProt Q8N884). The test can be described thus: Cellular assay to measure cGAS activity (IFNb AlphaLISA in THP1 cells stimulated by RDG-Adenovirus-GFP). Format: cell-based. Details: host or cells: THP1 cells differentiated with PMA and stimulated with RDG-Adenovirus-GFP. The settings on record: PMA-differentiated THP1 cells, RDG-Adenovirus-GFP at 1000 MOI; inhibition of IFNb production as marker for cGAS activity. The method, then: Cellular assay to measure cGAS activity: Use THP1 cell line from ATCC to determine inhibition of cGAS activity by test compounds in human cells. Plate cells on 96-well plates at 0.2×10^6/well and differentiate with phorbol myristate acetate (PMA) at 37° C./5% CO2. After 24 hours, replace PMA containing media with media lacking PMA and further incubate overnight. Stimulate cells were then by RDG-Adenovirus-GFP (Vector Biolabs #1768) at 1000 MOI for 4 hours prior to the addition of test compounds. After overnight incubation, transfer 10 μL of the media from each well to a new plate for IFNb analysis as a marker for cGAS activity. Measure quantification of IFNb with an IFNb AlphaLISA Detection kit (Perkin Elmer AL3133F) by mixing the acceptor beads with the cell supernatant followed by the addition of the biotinylated antibody and donor beads. Measure the relative fluorescence signal produced from the interaction of the donor and acceptor beads by a PHERAStar AlphaLISA protocol and evaluate the inhibitory effect of a compound by plotting specific inhibition of IFNb production against log concentration of the test compound. Calculate IC50 values using a 4-parameter non-linear logistic equation (y=(S0+((SInf−S0)/(1+((qAC50/x)^nHill))))).
On the technique in general: In Alpha technology, singlet oxygen from a donor bead excites a nearby acceptor bead.

Test [2] addresses T1, cGAS. As to the kind of experiment: In vitro inhibition assay of cGAS activity (cGAMP production, RapidFire mass spectrometry). Format: biochemical. Details: Insert cDNA encoding full-length of human cGAS; His6; made in house; host or cells: E. coli BL21(DE3). The settings on record: 10 nM recombinant human cGAS, 60 nM 75-bp dsDNA, 50 μM ATP, 50 μM GTP, 3 hrs. The protocol: Expression and Purification of Recombinant cGAS Protein: Insert cDNA encoding full-length of human cGAS into a modified bacterial expression vector containing an in-frame His6-tag. Induce the E. coli strain BL21(DE3) harboring the plasmid with 1 mM IPTG (Isopropyl β-D-1-thiogalactopyranoside) at 18° C. overnight. Purify the His6-tagged cGAS protein over HISpur Ni-NTA resin in the presence of benzonase and RNase followed by Superdex 200 size exclusion chromatography with storage buffer (50 mM Tris-HCl pH 7.5, 300 mM NaCl, 1 mM DTT, 10% glycerol).
In vitro inhibition assay of cGAS activity: Add a 5 μL mixture containing 10 mM Tris-Cl pH 7.5, 50 mM NaCl, 5 mM MgCl2, 1 mM DTT, 0.01% Triton X-100, 60 nM 75-bp dsDNA, 50 μM ATP, 50 μM GTP, 10 nM of recombinant human cGAS, and serial dilutions of a test compound in DMSO to a 384-well plate and incubate at ambient temperature for 3 hrs. Quench the reaction by the addition of 100 μL of stop solution containing 0.1% formic acid and 0.1 μM internal standard (3′3′-difluoro cGAMP). Measure the amount of cGAMP produced by RapidFire 365 mass spectrometry and evaluate inhibitory effect of a compound by plotting percent specific inhibition of cGAMP production against log concentration of the test compound. Calculate IC50 values using a 4-parameter non-linear logistic equation (y=(S0+((Sinf−S0)/(1+((qAC50/x)^nHill))))).

T1 sequence (Q8N884 whole entry): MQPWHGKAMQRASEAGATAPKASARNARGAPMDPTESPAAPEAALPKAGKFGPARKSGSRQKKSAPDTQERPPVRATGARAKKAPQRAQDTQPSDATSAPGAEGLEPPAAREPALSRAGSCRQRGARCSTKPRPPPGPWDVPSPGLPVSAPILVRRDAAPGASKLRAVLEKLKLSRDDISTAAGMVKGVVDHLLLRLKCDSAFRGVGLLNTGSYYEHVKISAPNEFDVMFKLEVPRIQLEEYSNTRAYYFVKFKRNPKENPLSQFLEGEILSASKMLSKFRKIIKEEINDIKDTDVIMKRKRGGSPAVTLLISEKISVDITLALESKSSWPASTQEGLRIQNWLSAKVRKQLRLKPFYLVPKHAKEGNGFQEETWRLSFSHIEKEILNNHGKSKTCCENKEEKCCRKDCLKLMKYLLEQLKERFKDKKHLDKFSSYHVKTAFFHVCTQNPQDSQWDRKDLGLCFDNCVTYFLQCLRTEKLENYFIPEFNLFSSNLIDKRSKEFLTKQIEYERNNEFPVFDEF

The IC50 is the concentration that gives 50% inhibition. As for `C[C@@H]1CNC(=O)[C@@H](C)c2c1[nH]c1c(Cl)c(Cl)cc(NCCO)c21` (single isomer, unassigned) [Example 157], the IC50 was over 10000 nM against cGAS [1] and 6680 nM at cGAS [2].

`C[C@@H]1C(=O)NC[C@H](C)c2[nH]c3c(Cl)c(Cl)cc(CC#N)c3c21` (single isomer, unassigned) [Example 152]: the IC50 against cGAS [1] is 5310 nM; on cGAS [2], 948 nM.

For `C[C@@H]1CNC(=O)[C@@H](C)c2c1[nH]c1c(Cl)c(Cl)cc(NC(=O)CO)c21` (single isomer, unassigned) [Example 161, N-((1S,5R)-7,8-Dichloro-1,5-dimethyl-2-oxo-1,2,3,4,5,6-hexahydroazepino[4,5-b]indol-10-yl)-2-hydroxyacetamide or N-((1R,5S)-7,8-Dichloro-1,5-dimethyl-2-oxo-1,2,3,4,5,6-hexahydroazepino[4,5-b]indol-10-yl)-2-hydroxyacetamide], the concentration for half-maximal inhibition (IC50) was over 10000 nM on cGAS [1] and 3730 nM at cGAS [2].

Turning to `CC1C(=O)NCCc2[nH]c3c(Cl)c(Cl)cc(NCc4cocn4)c3c21` (stereo not shown) [Example 57, 7,8-Dichloro-1-methyl-10-((oxazol-4-ylmethyl)amino)-3,4,5,6-tetrahydroazepino[4,5-b]indol-2(1H)-one], the half-inhibitory concentration (IC50) against cGAS [1] was 558 nM; at cGAS [2] it was 42.1 nM.

Turning to `COCC[C@@H]1CNC(=O)[C@@H](C)c2c1[nH]c1c(Cl)c(Cl)cc(NCCO)c21` (racemic) [Example 169, trans-7,8-Dichloro-10-((2-hydroxyethyl)amino)-5-(2-methoxyethyl)-1-methyl-3,4,5,6-tetrahydroazepino[4,5-b]indol-2(1H)-one], the IC50 was 1130 nM against cGAS [1] and 26.2 nM at cGAS [2].

Regarding `C[C@@H]1C(=O)NCCc2[nH]c3c(Cl)c(Cl)cc(OCCCO)c3c21` (single isomer, unassigned) [Example 14A], the values for the IC50 against cGAS [1] and at cGAS [2] were 344 nM and 7.3 nM, respectively.

In the case of `C[C@@H]1C(=O)NCCc2[nH]c3c(Cl)c(Cl)cc(OCC(F)(F)CO)c3c21` (single isomer, unassigned) [Example 74], the IC50 on cGAS [1] was over 10000 nM; on cGAS [2], 3440 nM.

Consider `CC(=O)OCCCOc1cc(Cl)c(Cl)c2[nH]c3c(c12)C(C)C(=O)NCC3` (racemic) [Example 13, 3-((7,8-Dichloro-1-methyl-2-oxo-1,2,3,4,5,6-hexahydroazepino[4,5-b]indol-10-yl)oxy)propyl acetate], for which the IC50 was 582 nM against cGAS [1] and 9050 nM at cGAS [2].

As for `CC1C(=O)NCCc2c1c1c(NCCO)cc(Cl)c(Cl)c1n2C(F)F` (racemic) [Example 140, 7,8-Dichloro-6-(difluoromethyl)-10-((2-hydroxyethyl)amino)-1-methyl-3,4,5,6-tetrahydroazepino[4,5-b]indol-2(1H)-one], the IC50 is 1280 nM against cGAS [1] and 16.4 nM at cGAS [2].

Regarding `C[C@H](O)C(=O)Nc1cc(Cl)c(Cl)c2c1c1c(n2C(F)F)CCNC(=O)[C@H]1C` (single isomer, unassigned) [Example 142], the IC50 on cGAS [1] was 293 nM; at cGAS [2] it was 29.6 nM.

`CC(C)(O)C[C@@H]1CNC(=O)Cc2c1[nH]c1c(Cl)c(Cl)cc(CC#N)c21` (single isomer, unassigned) [Example 106]: the 50% inhibitory concentration (IC50) is 861 nM against cGAS [1] and 188 nM on cGAS [2].

`O=C1Cc2c([nH]c3c(Cl)c(Cl)cc(-c4cnco4)c23)CCN1` [Example 27, 7,8-Dichloro-10-(oxazol-5-yl)-3,4,5,6-tetrahydroazepino[4,5-b]indol-2(1H)-one]: the IC50 on cGAS [1] was over 10000 nM; on cGAS [2], 110 nM.

For `C[C@@H]1CNC(=O)[C@H](C)c2c1[nH]c1c(Cl)c(Cl)cc(NCCO)c21` (single isomer, unassigned) [Example 155], the IC50 on cGAS [1] was found to be 655 nM; on cGAS [2], 17.7 nM.

`CC1C(=O)NCCc2[nH]c3c(Cl)c(Cl)cc(OCC(F)F)c3c21` (racemic) [Example 76, 7,8-Dichloro-10-(2,2-difluoroethoxy)-1-methyl-3,4,5,6-tetrahydroazepino[4,5-b]indol-2(1H)-one]: the IC50 on cGAS [1] came out at 1470 nM; on cGAS [2] it was 38.6 nM.

For `Cn1ncc(-c2cc(Cl)c(Cl)c3[nH]c4c(c23)CC(=O)NCC4CCC(F)F)n1` (racemic) [Example 177, 7,8-Dichloro-5-(3,3-difluoropropyl)-10-(2-methyl-2H-1,2,3-triazol-4-yl)-3,4,5,6-tetrahydroazepino[4,5-b]indol-2(1H)-one], the IC50 at cGAS [1] was 841 nM; at cGAS [2], 23.1 nM.

Turning to `CC1C(=O)NCCc2[nH]c3c(Cl)c(Cl)cc(NCc4cocn4)c3c21` (stereo in doubt) [Example 58, (S′)-7,8-Dichloro-1-methyl-10-((oxazol-4-ylmethyl)amino)-3,4,5,6-tetrahydroazepino[4,5-b]indol-2(1H)-one Or (R)-7,8-Dichloro-1-methyl-10-((oxazol-4-ylmethyl)amino)-3,4,5,6-tetrahydroazepino[4,5-b]indol-2(1H)-one], the IC50 on cGAS [1] is 577 nM; at cGAS [2], 16.5 nM.

Take `CC1C(=O)NCCc2[nH]c3c(Cl)c(Cl)cc(OC4CCOC4)c3c21` (mixture of isomers) [Example 86, 7,8-Dichloro-1-methyl-10-((tetrahydrofuran-3-yl)oxy)-3,4,5,6-tetrahydroazepino[4,5-b]indol-2(1H)-one]: the values for the half-maximal inhibitory concentration (IC50) at cGAS [1] and on cGAS [2] were 3470 nM and 51.9 nM, respectively.

Consider `COCCOc1cc(Cl)c(Cl)c2[nH]c3c(c12)C(C)C(=O)NCC3` (stereo not shown) [Example 79, 7,8-Dichloro-10-(2-methoxyethoxy)-1-methyl-3,4,5,6-tetrahydroazepino[4,5-b]indol-2(1H)-one], for which the figures for the half-inhibitory concentration (IC50) against cGAS [1] and at cGAS [2] were 591 nM and 14.2 nM, respectively.

Turning to `CCC1CNC(=O)Cc2c1[nH]c1c(Cl)c(Cl)cc(-c3cnn(C)n3)c21` (stereo not shown) [Example 162, 7,8-Dichloro-5-ethyl-10-(2-methyl-2H-1,2,3-triazol-4-yl)-3,4,5,6-tetrahydroazepino[4,5-b]indol-2(1H)-one], the values for the IC50 against cGAS [1] and at cGAS [2] were 1280 nM and 48.7 nM, respectively.

For `COCCOc1cc(Cl)c(Cl)c2c1c1c(n2C)CCNC(=O)C1C` (stereo not shown) [Example 97, 7,8-Dichloro-10-(2-methoxyethoxy)-1,6-dimethyl-3,4,5,6-tetrahydroazepino[4,5-b]indol-2(1H)-one], the half-maximal inhibitory concentration (IC50) was determined as 1150 nM on cGAS [1] and 18 nM on cGAS [2].

As for `COCCNc1cc(Cl)c(Cl)c2[nH]c3c(c12)[C@@H](C)C(=O)NCC3` (single isomer, unassigned) [Example 48], the IC50 against cGAS [1] was over 10000 nM; on cGAS [2], 6490 nM.

Consider `Cc1conc1Nc1cc(Cl)c(Cl)c2[nH]c3c(c12)C(C)C(=O)NCC3` (stereo not shown) [Example 67, 7,8-Dichloro-1-methyl-10-((4-methylisoxazol-3-yl)amino)-3,4,5,6-tetrahydroazepino[4,5-b]indol-2(1H)-one], for which the IC50 at cGAS [1] was found to be 1030 nM; on cGAS [2] it was 30.6 nM.

Regarding `C[C@@H]1C(=O)NCCc2[nH]c3c(Cl)c(Cl)cc(OC[C@@H](C)O)c3c21` (single isomer, unassigned) [Example 82], the values for the half-maximal inhibitory concentration (IC50) on cGAS [1] and on cGAS [2] were 910 nM and 32.5 nM, respectively.

With `CCNc1cc(Cl)c(Cl)c2[nH]c3c(c12)CC(=O)NCC3` [Example 30, 7,8-Dichloro-10-(ethylamino)-3,4,5,6-tetrahydroazepino[4,5-b]indol-2(1H)-one], the values for the IC50 at cGAS [1] and on cGAS [2] were 3730 nM and 119 nM, respectively.

As for `C[C@H]1C(=O)NCCc2[nH]c3c(Cl)c(Cl)cc(NCCCO)c3c21` (single isomer, unassigned) [Example 53], the figures for the concentration for half-maximal inhibition (IC50) against cGAS [1] and at cGAS [2] were 471 nM and 17.3 nM, respectively.

On to `C[C@H](O)C(=O)Nc1cc(Cl)c(Cl)c2[nH]c3c(c12)[C@@H](C)C(=O)NCC3` (single isomer, unassigned) [Example 42], for which the IC50 was over 10000 nM on cGAS [1] and 6440 nM at cGAS [2].
